Experimental data as given in US9346815B2, “5-chloro-2-difluoromethoxyphenyl pyrazolopyrimidine compounds, compositions and methods of use thereof” (Genentech, Inc., priority 2014, dated 2016).
pEC50, pKi: −log10 of the molar value.

What was measured:
[1] = target: isolated recombinant JAK1 kinase domain (Homo sapiens (Human), UniProt P23458); experiment: JAK1 enzyme assay (Caliper LabChip, peptide phosphorylation); format: biochemical; conditions: isolated recombinant JAK1 kinase domain, 25 μM ATP
[2] = target: isolated recombinant JAK2 kinase domain (Homo sapiens (Human), UniProt O60674); experiment: JAK2 enzyme assay (Caliper LabChip, peptide phosphorylation); format: biochemical; conditions: 25 μM ATP
[3] = test system: JAK1-dependent STAT6 phosphorylation downstream of IL-13 stimulation in TF-1 human erythroleukemia cells; experiment: JAK1 pathway assay in TF-1 cells (IL-13-pSTAT6, MSD); format: cell-based; conditions: Homo sapiens, TF-1, TF-1 cells, read-out: IL13-pSTAT6 EC50_TF-1
Method in brief: (§1)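 TF-1 cells are starved of GM-CSF overnight and run in serum-free medium, while BEAS-2B cells stay in complete growth medium. Inhibition of STAT6 phosphorylation is measured by MSD.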

[4] = test system: JAK1-dependent STAT6 phosphorylation downstream of IL-13 stimulation in BEAS-2B human bronchial epithelial cells; experiment: JAK1 pathway assay in BEAS-2B cells (IL-13-pSTAT6, MSD); format: cell-based; conditions: read-out: IL13-pSTAT6 EC50 (uM)_BEAS-2B
Method in brief: as §1

[5] = Clearance assay: mouse intravenous (IV) clearance; format: in vivo; conditions: female BALB/c mice; for IV Mouse CL, % of liver blood flow: single IV dose of 1 mg/kg, clearance as % of mouse liver blood flow; for clearance: mouse, plasma, single IV dose of 1 mg/kg via the tail vein, read-out: IV Mouse CL
From the text: In certain instances high systemic clearance of a drug substance may be of benefit. For example, in the treatment of pulmonary diseases it may be beneficial to have high drug concentrations in the lung, with lower concentrations in the bloodstream or peripheral organs. In such cases, it may be advantageous to administer a drug substance with high systemic clearance via the inhaled delivery route. This approach may maximize pharmacologic activity of the drug substance in the lung while minimizing the possibility of on-target toxicity elsewhere in the body. The functional groups appended to the 5-chloro-2-difluoromethoxyphenyl pyrazolopyrimidine scaffold affect systemic clearance.
Female BALB/c mice were obtained from Charles River Labs (Hollister, Calif. USA). Twelve animals were given a single IV dose of 1 mg/kg of compounds via the tail vein. A representative dose solution was prepared as follows: the compound was dissolved in a mixture of 5% dimethylsulfoxide (DMSO), 35% polyethylene glycol (PEG 400), and 60% water (v/v/v), respectively, and administered at a dosing volume of 5 mL/kg. Mice weighed approximately 20-25 g at the start of the study. After intravenous administration of compounds, each animal was bled twice via retro-orbital and cardiac puncture. PK time points were collected at 2 min, 5 min, 15 min, 30 min, 1 hr, 2 hr, 4 hr, and 8 hr post-dose. Plasma samples were stored at approximately −80° C. until thawed for LC-MS/MS analysis. PK data analysis was performed on mean plasma concentration-time data and PK parameters were determined by non compartmental methods using WinNonlin® Enterprise, version 5.2.1 (Pharsight Corporation; Mountain View, Calif.).

Sequence of isolated recombinant JAK2 kinase domain (O60674 849-1124): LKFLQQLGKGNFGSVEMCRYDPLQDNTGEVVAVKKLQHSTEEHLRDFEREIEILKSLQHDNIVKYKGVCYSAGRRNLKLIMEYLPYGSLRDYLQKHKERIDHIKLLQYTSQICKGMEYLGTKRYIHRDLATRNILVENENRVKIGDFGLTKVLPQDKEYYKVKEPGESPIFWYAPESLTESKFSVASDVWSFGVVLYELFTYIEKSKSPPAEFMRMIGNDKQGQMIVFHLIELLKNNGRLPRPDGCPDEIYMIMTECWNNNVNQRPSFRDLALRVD
Sequence of isolated recombinant JAK1 kinase domain (P23458 875-1153): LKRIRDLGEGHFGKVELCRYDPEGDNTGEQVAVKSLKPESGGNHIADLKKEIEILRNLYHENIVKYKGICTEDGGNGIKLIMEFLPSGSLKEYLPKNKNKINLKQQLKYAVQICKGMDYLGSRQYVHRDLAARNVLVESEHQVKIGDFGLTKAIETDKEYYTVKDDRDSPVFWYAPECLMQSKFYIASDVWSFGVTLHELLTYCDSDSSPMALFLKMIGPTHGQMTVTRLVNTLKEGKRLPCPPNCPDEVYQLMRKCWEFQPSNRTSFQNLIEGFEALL

Compound | pKi [1] | pKi [2] | pEC50 [3] | EC50 [4] [µM] | IV Mouse CL, % of liver blood flow [5] [%] | clearance [5] [mL/min/kg]
CCN1CCN(C(=O)Cn2cc(NC(=O)c3cnn4cccnc34)c(-c3cc(Cl)ccc3OC(F)F)n2)CC1 [Example 233, Pyrazolo[1,5-a]pyrimidine-3-carboxylic acid {3-(5-chloro-2-difluoromethoxy-phenyl)-1-[2-(4-ethyl-piperazin-1-yl)-2-oxo-ethyl]-1H-pyrazol-4-yl}-amide] | 9.11 | 8.84 | 8.00 | 0.0181 | >100 | 153
CN(CCC#N)C1CCN(C(=O)Cn2cc(NC(=O)c3cnn4cccnc34)c(-c3cc(Cl)ccc3OC(F)F)n2)CC1 [Example 63, Pyrazolo[1,5-a]pyrimidine-3-carboxylic acid [3-(5-chloro-2-difluoromethoxy-phenyl)-1-(2-{4-[(2-cyano-ethyl)-methyl-amino]-piperidin-1-yl}-2-oxo-ethyl)-1H-pyrazol-4-yl]-amide] | 9.47 | 9.15 | 8.24 | 0.0122 | >100 | 139
Nc1nn2cccnc2c1C(=O)Nc1cn(C2CCNCC2)nc1-c1cc(Cl)ccc1OC(F)F [Example 2, 2-Amino-pyrazolo[1,5-a]pyrimidine-3-carboxylic acid [3-(5-chloro-2-difluoromethoxy-phenyl)-1-piperidin-4-yl-1H-pyrazol-4-yl]-amide] | 9.14 | 9.72 | 8.28 | 0.0195 | >100 | 580
CN(CC(F)(F)F)C1CCN(C(=O)Cn2cc(NC(=O)c3cnn4cccnc34)c(-c3cc(Cl)ccc3OC(F)F)n2)CC1 [Example 99, N-[3-[5-chloro-2-(difluoromethoxy)phenyl]-1-[2-[4-[methyl(2,2,2-trifluoroethyl)amino]-1-piperidyl]-2-oxo-ethyl]pyrazol-4-yl]pyrazolo[1,5-a]pyrimidine-3-carboxamide] | 9.40 | 9.12 | 8.77 | 0.0305 | >100 | 234
CN(CCc1ccccc1)C1CCN(C(=O)Cn2cc(NC(=O)c3cnn4cccnc34)c(-c3cc(Cl)ccc3OC(F)F)n2)CC1 [Example 85, N-[3-[5-chloro-2-(difluoromethoxy)phenyl]-1-[2-[4-[methyl(2-phenylethyl)amino]-1-piperidyl]-2-oxo-ethyl]pyrazol-4-yl]pyrazolo[1,5-a]pyrimidine-3-carboxamide] | 9.07 | 8.78 | 7.82 | 0.1 | 61 | 55
CN1CCN(c2nc(-c3cc(Cl)ccc3OC(F)F)c(NC(=O)c3cnn4cccnc34)s2)CC1 [Example 205, Pyrazolo[1,5-a]pyrimidine-3-carboxylic acid [4-(5-chloro-2-difluoromethoxy-phenyl)-2-(4-methyl-piperazin-1-yl)-thiazol-5-yl]-amide] | 9.10 | 9.24 | 8.36 | 0.0338 | 51 | 46
CN(Cc1ccccc1)C1CCN(C(=O)Cn2cc(NC(=O)c3cnn4cccnc34)c(-c3cc(Cl)ccc3OC(F)F)n2)CC1 [Example 98, N-[1-[2-[4-[benzyl(methyl)amino]-1-piperidyl]-2-oxo-ethyl]-3-[5-chloro-2-(difluoromethoxy)phenyl]pyrazol-4-yl]pyrazolo[1,5-a]pyrimidine-3-carboxamide] | 9.10 | 8.74 | 8.42 | 0.0381 | >100 | 178
